Results on 3 compounds are retold here after ChEMBL document CHEMBL3045618, “Effect of seven new orchard pesticides on Galendromus occidentalis in laboratory studies” (2009).

Common to all, as to assay type: functional
Test [1] deals with Galendromus occidentalis. Description: Toxicity against Metaseiulus occidentalis adults in bean leaf disk infested with two-spotted spider mites assessed as repellency at 0.1341 g AI/L treated using worst-case laboratory exposure procedure measured after 72 hr (reference value: 16.1%).
The subject of test [2] is Galendromus occidentalis. The experiment in a line: Toxicity against Metaseiulus occidentalis adults in bean leaf disk infested with two-spotted spider mites assessed as corrected mortality at 2x0.1341 g AI/L treated using worst-case laboratory exposure procedure measured after 72 hr.
In test [3] the test system is Galendromus occidentalis. The experiment in a line: Toxicity against Metaseiulus occidentalis adults in bean leaf disk infested with two-spotted spider mites assessed as average number of eggs laid (fecundity) at 0.1341 g AI/L treated using worst-case laboratory exposure procedure measured after 24 hr (reference value: 2.11/day).
Test [4] has as its system Galendromus occidentalis. The experiment in a line: Ovicidal activity against Metaseiulus occidentalis eggs in bean leaf disk infested with two-spotted spider mites assessed as corrected cumulative mortality at 442 g/L SC formulation treated using worst-case laboratory exposure procedure measured after 144 hr (reference value: 0.7%).
In test [5] the test system is Galendromus occidentalis. Description: Toxicity against Metaseiulus occidentalis adults in bean leaf disk infested with two-spotted spider mites assessed as corrected mortality at 4x0.1341 g AI/L treated using worst-case laboratory exposure procedure measured after 72 hr.
Test [6] has as its system Galendromus occidentalis. The experiment in a line: Toxicity against Metaseiulus occidentalis adults in bean leaf disk infested with two-spotted spider mites assessed as corrected mortality at 0.1341 g AI/L treated using worst-case laboratory exposure procedure measured after 72 hr.
Test [7] deals with Galendromus occidentalis. Description: Toxicity against Metaseiulus occidentalis adults in bean leaf disk infested with two-spotted spider mites assessed as repellency at 0.1341 g AI/L treated using worst-case laboratory exposure procedure measured after 48 hr (reference value: 13.6%).
Test [8] relates to Galendromus occidentalis. The experiment in a line: Toxicity against Metaseiulus occidentalis adults in bean leaf disk infested with two-spotted spider mites assessed as repellency at 0.1341 g AI/L treated using worst-case laboratory exposure procedure measured after 24 hr (reference value: 3.6%).
The test system of test [9] is Galendromus occidentalis. Description: Toxicity against Metaseiulus occidentalis adults in bean leaf disk infested with two-spotted spider mites assessed as average number of eggs laid (fecundity) at 0.1341 g AI/L treated using worst-case laboratory exposure procedure measured after 72 hr (reference value: 2.23/day).
Test [10] relates to Galendromus occidentalis. Description: Toxicity against Metaseiulus occidentalis adults in bean leaf disk infested with two-spotted spider mites assessed as average number of eggs laid (fecundity) at 0.1341 g AI/L treated using worst-case laboratory exposure procedure measured after 48 hr (reference value: 2.30/day).
For test [11], the system named is Galendromus occidentalis. The experiment in a line: Toxicity against Metaseiulus occidentalis adults in bean leaf disk infested with two-spotted spider mites assessed as corrected mortality at 0.1167/46 g AI/L treated using worst-case laboratory exposure procedure measured after 72 hr.
Test [12] deals with Galendromus occidentalis. Description: Toxicity against Metaseiulus occidentalis adults in bean leaf disk infested with two-spotted spider mites assessed as corrected mortality at 0.1167/128 g AI/L treated using worst-case laboratory exposure procedure measured after 72 hr.
For test [13], the system named is Galendromus occidentalis. The experiment in a line: Toxicity against Metaseiulus occidentalis adults in bean leaf disk infested with two-spotted spider mites assessed as corrected mortality at 2x0.1167 g AI/L treated using worst-case laboratory exposure procedure measured after 72 hr.
In test [14] the test system is Galendromus occidentalis. The experiment in a line: Ovicidal activity against Metaseiulus occidentalis eggs in bean leaf disk infested with two-spotted spider mites assessed as corrected cumulative mortality at 700 g/kg WP formulation treated using worst-case laboratory exposure procedure measured after 144 hr (reference value: 0.7%).
The subject of test [15] is Galendromus occidentalis. The experiment in a line: Toxicity against Metaseiulus occidentalis adults in bean leaf disk infested with two-spotted spider mites assessed as average number of eggs laid (fecundity) at 0.1167 g AI/L treated using worst-case laboratory exposure procedure measured after 48 hr (reference value: 2.30/day).
Test [16] concerns Galendromus occidentalis. Description: Toxicity against Metaseiulus occidentalis adults in bean leaf disk infested with two-spotted spider mites assessed as repellency at 0.1167 g AI/L treated using worst-case laboratory exposure procedure measured after 72 hr (reference value: 16.1%).
The test system of test [17] is Galendromus occidentalis. The experiment in a line: Toxicity against Metaseiulus occidentalis adults in bean leaf disk infested with two-spotted spider mites assessed as repellency at 0.1167 g AI/L treated using worst-case laboratory exposure procedure measured after 24 hr (reference value: 3.6%).
In test [18] the test system is Galendromus occidentalis. The experiment in a line: Toxicity against Metaseiulus occidentalis adults in bean leaf disk infested with two-spotted spider mites assessed as mortality treated using worst-case laboratory exposure procedure measured after 72 hr.
The test system of test [19] is Galendromus occidentalis. Description: Toxicity against Metaseiulus occidentalis adults in bean leaf disk infested with two-spotted spider mites assessed as average number of eggs laid (fecundity)at 0.1167 g AI/L treated using worst-case laboratory exposure procedure measured after 72 hr (reference value: 2.23/day).
In test [20] the test system is Galendromus occidentalis. Description: Toxicity against Metaseiulus occidentalis adults in bean leaf disk infested with two-spotted spider mites assessed as corrected mortality at 0.1167 g AI/L treated using worst-case laboratory exposure procedure measured after 72 hr.
Test [21] has as its system Galendromus occidentalis. The experiment in a line: Toxicity against Metaseiulus occidentalis adults in bean leaf disk infested with two-spotted spider mites assessed as corrected mortality at 0.1167/8 g AI/L treated using worst-case laboratory exposure procedure measured after 72 hr.
Test [22] has as its system Galendromus occidentalis. The experiment in a line: Toxicity against Metaseiulus occidentalis adults in bean leaf disk infested with two-spotted spider mites assessed as average number of eggs laid (fecundity) at 0.1167 g AI/L treated using worst-case laboratory exposure procedure measured after 24 hr (reference value: 2.11/day).
Test [23] relates to Galendromus occidentalis. The experiment in a line: Toxicity against Metaseiulus occidentalis adults in bean leaf disk infested with two-spotted spider mites assessed as corrected mortality at 4x0.1167 g AI/L treated using worst-case laboratory exposure procedure measured after 72 hr.
In test [24] the test system is Galendromus occidentalis. The experiment in a line: Toxicity against Metaseiulus occidentalis adults in bean leaf disk infested with two-spotted spider mites assessed as repellency at 0.1167 g AI/L treated using worst-case laboratory exposure procedure measured after 48 hr (reference value: 13.6%).
The test system of test [25] is Galendromus occidentalis. The experiment in a line: Toxicity against Metaseiulus occidentalis adults in bean leaf disk infested with two-spotted spider mites assessed as repellency at 0.1600 g AI/L treated using worst-case laboratory exposure procedure measured after 72 hr (reference value: 16.1%).
Test [26] relates to Galendromus occidentalis. The experiment in a line: Toxicity against Metaseiulus occidentalis adults in bean leaf disk infested with two-spotted spider mites assessed as corrected mortality at 0.1600 g AI/L treated using worst-case laboratory exposure procedure measured after 72 hr.
Test [27] deals with Galendromus occidentalis. Description: Ovicidal activity against Metaseiulus occidentalis eggs in bean leaf disk infested with two-spotted spider mites assessed as corrected cumulative mortality at 250 g/kg WG formulation treated using worst-case laboratory exposure procedure measured after 144 hr (reference value: 0.7%).
Test [28] relates to Galendromus occidentalis. The experiment in a line: Toxicity against Metaseiulus occidentalis adults in bean leaf disk infested with two-spotted spider mites assessed as repellency at 0.1600 g AI/L treated using worst-case laboratory exposure procedure measured after 48 hr (reference value: 13.6%).
Test [29] has as its system Galendromus occidentalis. The experiment in a line: Toxicity against Metaseiulus occidentalis adults in bean leaf disk infested with two-spotted spider mites assessed as average number of eggs laid (fecundity) at 0.1600 g AI/L treated using worst-case laboratory exposure procedure measured after 24 hr (reference value: 2.11/day).
Test [30] has as its system Galendromus occidentalis. Description: Toxicity against Metaseiulus occidentalis adults in bean leaf disk infested with two-spotted spider mites assessed as corrected mortality at 2x0.1600 g AI/L treated using worst-case laboratory exposure procedure measured after 72 hr.
In test [31] the test system is Galendromus occidentalis. The experiment in a line: Toxicity against Metaseiulus occidentalis adults in bean leaf disk infested with two-spotted spider mites assessed as average number of eggs laid (fecundity) at 0.1600 g AI/L treated using worst-case laboratory exposure procedure measured after 48 hr (reference value: 2.30/day).
The subject of test [32] is Galendromus occidentalis. Description: Toxicity against Metaseiulus occidentalis adults in bean leaf disk infested with two-spotted spider mites assessed as corrected mortality at 4x0.1600 g AI/L treated using worst-case laboratory exposure procedure measured after 72 hr.
Test [33] has as its system Galendromus occidentalis. The experiment in a line: Toxicity against Metaseiulus occidentalis adults in bean leaf disk infested with two-spotted spider mites assessed as repellency at 0.1600 g AI/L treated using worst-case laboratory exposure procedure measured after 24 hr (reference value: 3.6%).
Test [34] relates to Galendromus occidentalis. The experiment in a line: Toxicity against Metaseiulus occidentalis adults in bean leaf disk infested with two-spotted spider mites assessed as average number of eggs laid (fecundity) at 0.1600 g AI/L treated using worst-case laboratory exposure procedure measured after 72 hr (reference value: 2.23/day).

With `CC[C@H]1CCC[C@H](O[C@H]2CC[C@H](N(C)C)[C@@H](C)O2)[C@@H](C)C(=O)C2=C[C@@H]3[C@@H](C=C(C)[C@@H]4C[C@@H](O[C@@H]5O[C@@H](C)[C@H](OC)[C@@H](OC)[C@H]5OC)C[C@@H]34)[C@@H]2CC(=O)O1.CC[C@H]1CCC[C@H](O[C@H]2CC[C@H](N(C)C)[C@@H](C)O2)[C@@H](C)C(=O)C2=C[C@@H]3[C@@H](C=C[C@@H]4C[C@@H](O[C@@H]5O[C@@H](C)[C@H](OC)[C@@H](OC)[C@H]5OC)C[C@@H]34)[C@@H]2CC(=O)O1`, the figures for the Repellency in the test on Galendromus occidentalis [1], in the test with Galendromus occidentalis [7] and in the test with Galendromus occidentalis [8] were 28.8%, 24.4% and 10.9%, respectively. Also, the mortality in the test on Galendromus occidentalis [2] was 0%; with Galendromus occidentalis [5], 0%; in the test with Galendromus occidentalis [6], 0.4%. Also, the Activity in the test with Galendromus occidentalis [3] was determined as 1.57 day⁻¹; in the test with Galendromus occidentalis [9] it was 2.28 day⁻¹; in the test on Galendromus occidentalis [10], 1.59 day⁻¹. The mortality at 442000 µg/mL (stock) in the test on Galendromus occidentalis [4] amounted to 6.6%.
Take `C/C(=N\C#N)N(C)Cc1ccc(Cl)nc1` [ACETAMIPRID]: the mortality in the test with Galendromus occidentalis [11] is on record as 42.4%; in the test with Galendromus occidentalis [12] it was 2.4%; with Galendromus occidentalis [13], 64.2%; with Galendromus occidentalis [14], 2%; with Galendromus occidentalis [20], 63.7%; with Galendromus occidentalis [21], 56.9%. Besides, the mortality in the test on Galendromus occidentalis [23] was found to be 83.1%. The Activity in the test with Galendromus occidentalis [15] turned out to be 0.13 day⁻¹; with Galendromus occidentalis [19], 0 day⁻¹; in the test with Galendromus occidentalis [22] it was 1.3 day⁻¹. The results for the Repellency in the test with Galendromus occidentalis [16], in the test on Galendromus occidentalis [17] and in the test with Galendromus occidentalis [24] were 50%, 16% and 41%, respectively. Besides, the LC50 with Galendromus occidentalis [18] was 0.021 gAi/L.
Take `CN1COCN(Cc2cnc(Cl)s2)/C1=N\[N+](=O)[O-]` [THIAMETHOXAM]: the Repellency stood at 41% with Galendromus occidentalis [25], 34% in the test with Galendromus occidentalis [28] and 5.1% in the test on Galendromus occidentalis [33]. Besides, the mortality with Galendromus occidentalis [26] was found to be 8%; in the test on Galendromus occidentalis [27] it was 4.3%; in the test with Galendromus occidentalis [30], 6.2%; in the test with Galendromus occidentalis [32], 8.5%. The Activity stood at 1.44 day⁻¹ in the test on Galendromus occidentalis [29], 0.33 day⁻¹ with Galendromus occidentalis [31] and 0.58 day⁻¹ in the test with Galendromus occidentalis [34].

The mortality is the share of the test organisms that died.
